biological target: Rho-associated protein kinase 2 (Homo sapiens, UniProt O75116); experiment: Inhibition of ROCK2 (unknown origin) using STK2 substrate after 4 hrs by HTRF mode
Sequence (O75116 whole entry): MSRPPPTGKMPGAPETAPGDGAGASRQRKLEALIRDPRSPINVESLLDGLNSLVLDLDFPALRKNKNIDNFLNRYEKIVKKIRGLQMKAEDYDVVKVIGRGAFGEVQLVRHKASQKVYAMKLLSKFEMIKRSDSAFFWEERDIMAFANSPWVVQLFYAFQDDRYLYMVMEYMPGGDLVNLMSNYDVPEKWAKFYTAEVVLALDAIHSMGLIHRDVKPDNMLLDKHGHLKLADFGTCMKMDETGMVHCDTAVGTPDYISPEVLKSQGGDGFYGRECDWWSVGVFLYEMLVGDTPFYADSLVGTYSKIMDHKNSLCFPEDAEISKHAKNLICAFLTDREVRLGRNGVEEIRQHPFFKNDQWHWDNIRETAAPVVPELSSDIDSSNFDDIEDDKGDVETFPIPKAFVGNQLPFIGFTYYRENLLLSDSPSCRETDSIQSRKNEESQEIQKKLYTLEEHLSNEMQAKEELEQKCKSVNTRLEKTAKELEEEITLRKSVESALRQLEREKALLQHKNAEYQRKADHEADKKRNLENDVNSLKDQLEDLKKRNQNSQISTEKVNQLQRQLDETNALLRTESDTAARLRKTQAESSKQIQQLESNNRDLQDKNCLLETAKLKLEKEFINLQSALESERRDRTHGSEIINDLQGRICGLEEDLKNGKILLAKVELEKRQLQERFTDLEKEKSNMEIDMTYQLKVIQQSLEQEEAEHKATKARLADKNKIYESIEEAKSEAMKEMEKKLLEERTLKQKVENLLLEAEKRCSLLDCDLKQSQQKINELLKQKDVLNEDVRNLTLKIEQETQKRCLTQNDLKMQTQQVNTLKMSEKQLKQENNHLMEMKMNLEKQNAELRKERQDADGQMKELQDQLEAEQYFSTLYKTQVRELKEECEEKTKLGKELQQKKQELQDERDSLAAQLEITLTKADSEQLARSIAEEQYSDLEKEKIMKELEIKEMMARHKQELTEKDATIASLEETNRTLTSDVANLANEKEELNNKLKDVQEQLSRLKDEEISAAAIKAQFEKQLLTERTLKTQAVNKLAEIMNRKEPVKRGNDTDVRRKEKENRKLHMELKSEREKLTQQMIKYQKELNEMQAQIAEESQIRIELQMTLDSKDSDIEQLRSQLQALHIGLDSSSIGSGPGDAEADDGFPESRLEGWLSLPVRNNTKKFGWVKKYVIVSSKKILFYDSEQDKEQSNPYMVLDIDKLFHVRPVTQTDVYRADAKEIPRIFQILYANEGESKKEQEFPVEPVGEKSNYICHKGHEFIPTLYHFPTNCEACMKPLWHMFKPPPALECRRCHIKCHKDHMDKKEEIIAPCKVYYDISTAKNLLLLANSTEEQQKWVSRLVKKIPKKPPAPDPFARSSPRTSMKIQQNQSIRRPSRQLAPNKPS

| SMILES | IC50 [nM] |
| --- | --- |
| CNC(=O)N(CCO)c1ccc(-c2cn[nH]c2)cc1 | 611 |
| CNC(=O)N(CCCN(C)C)c1ccc(-c2cn[nH]c2)cc1 | 3320 |
| O=C(Nc1ccc(-c2cn[nH]c2)cc1OCCO)N(CCO)Cc1ccccc1 | < 1 |
| CNC(=O)N(C)c1ccc(-c2cn[nH]c2)cc1 | 87 |
| CN(C)CCSc1cc(-c2cn[nH]c2)ccc1NC(=O)NCc1ccccc1 | 5.6 |
| COc1cccc(CNC(=O)Nc2ccc(-c3ncnc4[nH]ccc34)cc2)c1 | 188 |
| CC(C)N(Cc1ccccc1)C(=O)Nc1ccc(-c2cn[nH]c2)cc1 | 8 |
| CNC(=O)N(CCN(C)C)c1ccc(-c2cn[nH]c2)cc1 | 2980 |

Next, values leading:

| IC50 [nM] | SMILES |
| --- | --- |
| 170 | CN(C)CCOc1cc(-c2cn[nH]c2)ccc1NC(=O)N(CCN(C)C)Cc1ccccc1 |
| 8.5 | CN(C)CCN(C)c1cc(-c2cn[nH]c2)ccc1NC(=O)NCc1ccccc1 |

tested on: not listed separately; experiment: Inhibition of recombinant human full length PKA using kemptide substrate after 80 mins by luminescence mode

| SMILES | IC50 [nM] |
| --- | --- |
| CNC(=O)N(CCO)c1ccc(-c2cn[nH]c2)cc1 | > 20000 |
| COc1cccc(CNC(=O)Nc2ccc(-c3ccnc(N)c3)cc2)c1 | 5140 |
| Cc1cccc(CNC(=O)Nc2ccc(-c3cn[nH]c3)cc2)c1 | 2630 |
| O=C(NCc1cccc(Cl)c1)Nc1ccc(-c2cn[nH]c2)cc1 | 454 |
| COc1cccc(CNC(=O)Nc2ccc(-c3cn[nH]c3)cc2OC)c1 | 163 |
| CCN(Cc1cccc(OC)c1)C(=O)Nc1ccc(-c2cn[nH]c2)cc1OCCN(C)C | > 20000 |
| CNC(=O)N(CCCN(C)C)c1ccc(-c2cn[nH]c2)cc1 | 12000 |
| COc1cccc(CN(CCO)C(=O)Nc2ccc(-c3cn[nH]c3)cc2)c1 | 2990 |
| CN(C)CCC(NC(=O)Nc1ccc(-c2cn[nH]c2)cc1)c1ccccc1 (stereo unspecified) | 238 |
| O=C(Nc1ccc(-c2cn[nH]c2)cc1)N(CCO)Cc1ccccc1 | 610 |
| COc1cccc(CN(CCN2CCCC2)C(=O)Nc2ccc(-c3cn[nH]c3)cc2)c1 | 541 |
| COc1cccc(CNC(=O)Nc2ccc(-c3cn[nH]c3)cc2N(C)CCN(C)C)c1 | 3570 |
| O=C(Nc1ccc(-c2cn[nH]c2)cc1OCCO)N(CCO)Cc1ccccc1 | 615 |
| COc1ccc(CNC(=O)Nc2ccc(-c3cn[nH]c3)cc2)cc1F | 518 |
| COc1cccc(C(CCO)NC(=O)Nc2ccc(-c3cn[nH]c3)cc2)c1 (stereo unspecified) | 4870 |
| COc1cccc(CNC(=O)Nc2ccc(-c3cn[nH]c3)cc2Cl)c1 | 313 |
| CNC(=O)N(C)c1ccc(-c2cn[nH]c2)cc1 | > 20000 |
| CN(C)CCSc1cc(-c2cn[nH]c2)ccc1NC(=O)NCc1ccccc1 | 468 |
| O=C(Nc1ccc(-c2cn[nH]c2)cc1)NC(CCO)c1ccccc1 (stereo unspecified) | 438 |
| COCCN(Cc1cccc(OC)c1)C(=O)Nc1ccc(-c2cn[nH]c2)cc1 | 10500 |
| COc1cccc(CN(CCN(C)C)C(=O)Nc2ccc(-c3cn[nH]c3)cc2)c1 | 456 |
| O=C(NCC1CCCCC1)Nc1ccc(-c2cn[nH]c2)cc1 | > 20000 |
| COc1cccc(CNC(=O)Nc2ccc(-c3cn[nH]c3)cc2F)c1 | 1820 |

| SMILES | IC50 [nM] |
| --- | --- |
| O=C(NCCCc1ccccc1)Nc1ccc(-c2cn[nH]c2)cc1 | > 20000 |
| CCN(Cc1cccc(OC)c1)C(=O)Nc1ccc(-c2cn[nH]c2)cc1N(C)CCN(C)C | 5000 |
| COc1cccc(CN(C(=O)Nc2ccc(-c3cn[nH]c3)cc2)C2CC2)c1 | 1700 |
| O=C(NCc1cccc(F)c1)Nc1ccc(-c2cn[nH]c2)cc1 | 322 |
| COc1cccc(CNC(=O)Nc2ccc(-c3ncnc4[nH]ccc34)cc2)c1 | 744 |
| CC(C)N(Cc1ccccc1)C(=O)Nc1ccc(-c2cn[nH]c2)cc1 | 3380 |
| COc1cccc(CN(CCN)C(=O)Nc2ccc(-c3cn[nH]c3)cc2)c1 | 72 |
| COc1cccc(CN(CCCN2CCOCC2)C(=O)Nc2ccc(-c3cn[nH]c3)cc2)c1 | 724 |
| COc1cccc(CN(C(=O)Nc2ccc(-c3cn[nH]c3)cc2)C(C)C)c1 | 18400 |
| COc1cccc(CN(C)C(=O)Nc2ccc(-c3cn[nH]c3)cc2OCCN(C)C)c1 | 5220 |
| COc1ccccc1CNC(=O)Nc1ccc(-c2cn[nH]c2)cc1 | 654 |
| O=C(NCCc1ccccc1)Nc1ccc(-c2cn[nH]c2)cc1 | 3100 |
| COc1cccc(CN(CCCN2CCCC2)C(=O)Nc2ccc(-c3cn[nH]c3)cc2)c1 | 228 |
| COc1cccc(CN(C)C(=O)Nc2ccc(-c3cn[nH]c3)cc2)c1 | 1810 |
| COc1cccc(CNC(=O)Nc2ccc(-c3cn[nH]c3)cc2OCCN2CCCC2)c1 | 2730 |
| O=C(Nc1ccc(-c2cn[nH]c2)cc1)NC(CO)c1ccccc1 (stereo unspecified) | 389 |
| COc1cccc(CNC(=O)Nc2ccc(-c3c[nH]nc3C)cc2)c1 | 816 |
| COc1cccc(CN(CCN2CCCCC2)C(=O)Nc2ccc(-c3cn[nH]c3)cc2)c1 | 338 |
| CNC(=O)N(CCN(C)C)c1ccc(-c2cn[nH]c2)cc1 | 4200 |
| CCN(Cc1cccc(OC)c1)C(=O)Nc1ccc(-c2cn[nH]c2)cc1 | 4670 |
| COc1cccc(CNC(=O)Nc2ccc(-c3ccncc3)cc2)c1 | 2300 |
| Nc1cccc(CNC(=O)Nc2ccc(-c3cn[nH]c3)cc2)c1 | 405 |

Second part, the compound after the results:

| IC50 [nM] | SMILES |
| --- | --- |
| 1030 | COc1cccc(CNC(=O)Nc2ccc(-c3ccnc(N)n3)cc2)c1 |
| 38 | COc1cccc(CNC(=O)Nc2ccc(-c3cn[nH]c3)cc2N(C)C)c1 |
| 3820 | COc1cccc(CN(CCN2CCOCC2)C(=O)Nc2ccc(-c3cn[nH]c3)cc2)c1 |
| 6700 | CCN(Cc1cccc(OC)c1)C(=O)Nc1ccc(-c2cn[nH]c2)cc1O[C@H]1CCN(C)C1 |
| 3900 | COc1cccc(CNC(=O)Nc2ccc(-c3cn[nH]c3)cc2OCCN(C)C)c1 |
| 1020 | O=C(Nc1ccc(-c2cn[nH]c2)cc1F)N(CCO)Cc1ccccc1 |
| 822 | COc1cccc(CN(CCCN2CCCCC2)C(=O)Nc2ccc(-c3cn[nH]c3)cc2)c1 |
| > 20000 | COc1cc(CNC(=O)Nc2ccc(-c3cn[nH]c3)cc2)cc(OC)c1 |
| 8000 | O=C(Nc1ccc(-c2cn[nH]c2)cc1)N1CCc2ccccc2C1 |
| 18100 | CCN(Cc1cccc(OC)c1)C(=O)Nc1ccc(-c2cn[nH]c2)cc1OCCN1CCCC1 |
| > 20000 | COc1cccc(CN(C)C(=O)Nc2ccc(-c3cn[nH]c3)cc2OCCN2CCCC2)c1 |
| 11200 | COc1ccc(CNC(=O)Nc2ccc(-c3cn[nH]c3)cc2)c(OC)c1 |
| 894 | CN(C)CCN(C)c1cc(-c2cn[nH]c2)ccc1NC(=O)NCc1ccccc1 |
| > 20000 | COc1ccc(CNC(=O)Nc2ccc(-c3cn[nH]c3)cc2)cc1OC |
| 590 | O=C(NCc1ccccc1)Nc1ccc(-c2cn[nH]c2)cc1 |
| > 20000 | COc1ccc(OC)c(CNC(=O)Nc2ccc(-c3cn[nH]c3)cc2)c1 |
| 4620 | COc1cccc(CN(C)C(=O)Nc2ccc(-c3cn[nH]c3)cc2N(C)CCN(C)C)c1 |
| 580 | O=C(Nc1ccc(-c2cn[nH]c2)cc1)NC(CCO)c1cccc(F)c1 (stereo unspecified) |
| > 20000 | COc1cccc(CNC(=O)Nc2ccc(-c3cn[nH]c3)cc2)c1OC |
| 13500 | COc1cccc(OC)c1CNC(=O)Nc1ccc(-c2cn[nH]c2)cc1 |
| 882 | COc1cccc(CNC(=O)Nc2ccc(-c3cn[nH]c3)cc2)c1 |

Reference: ChEMBL document CHEMBL3400131, “Discovery of potent and selective urea-based ROCK inhibitors: Exploring the inhibitor's potency and ROCK2/PKA selectivity by 3D-QSAR, molecular docking and molecular dynamics simulations” (Bioorg Med Chem, 2015)
